Test results reported in patent publication US10981896B2, “Indolinone derivatives as inhibitors of maternal embryonic leucine zipper kinase” (BOARD OF REGENTS, THE UNIVERSITY OF TEXAS SYSTEM, priority 2017, dated 2021).
Values joined by “and” are separate entries in the source; they are usually repeats but may differ in a detail not shown here. Equal entries are not always repeated.

What was measured:
CHK1 = CHK1 (Homo sapiens (Human), UniProt O14757); assay: Selectivity dose-response kinase assay, CHK1; assay type: biochemical; details: 100 μM ATP
Excerpt: (§1) CHK1 and NUAK1 were purchased from SignalChem (Vancouver, BC). The NUAK2, CHK, and SAMS peptides were purchased from BioSyn (Lewisville, Tex.). The sequence of CHK and NUAK2 peptides are described elsewhere (Sanchez Y, et al. Science (New York, N.Y.). 1997; 277(5331):1497-1501; Scott J W, et al. Sci Rep. 2015; 5:14436). ERK2, AMPK, CAMKK2, and Ets1 were produced in house as previously described (Waas W F, Dalby K N. The Journal of biological chemistry. 2002; 277(15):12532-12540; Neumann D, et al. Protein Expr Purif. 2003; 30(2):230-237; Waas W F, Dalby K N. Protein Expr Purif. 2001; 23(1):191-197). Apparent KM values for ATP under specific assay conditions were determined using respective experimental conditions in Table 8 with varied ATP (0-1.28 mM). All selectivity dose-response assays were performed in kinase assay buffer (see Inhibitor Library Screen) with 2 mM DTT and 100 μM γ-^32P-ATP with additional conditions listed in Table 8. IC50 and KM^ATP values were subsequently used to calculate Ki (Equation 4). Relative selectivity was determined by comparing Ki^Enzyme/Ki^MELK (termed φ in Table 7). […] Standard error from linear regression data was propagated internally in Prism and taken into account in nonlinear regression to determine IC50 or Ki.

SUM-159 cells = assay: Cell proliferation, CellTiter-Blue viability assay, SUM-159; assay type: cell-based, human; details: 72 h after treatment
Excerpt: (§2) HCC70, BT-549, and SUM159 human TNBC cell lines and MCF10A human breast epithelial cell line were purchased from American Type Culture Collection. The murine 4T1-Luc TNBC cells were purchased from PerkinElmer. HCC70, BT-549, and 4T1-Luc cells were maintained in RPMI 1640 medium (Life Technologies Inc., Grand Island, N.Y., USA) and MDA-MB-231-LM2 cells in Dulbecco's modified Eagle's medium/F12 medium (Life Technologies Inc., Grand Island, N.Y., USA), both types of medium supplemented with FBS (10%) and antibiotic/antimycotic (1%). SUM159 cells were maintained in Ham's F-12 medium (Life Technologies Inc., Grand Island, N.Y., USA) supplemented with FBS (5%), antibiotic/antimycotic (1%), insulin (5 μg/mL), and hydrocortisone (1 μg/mL). MCF10A cells were maintained in Dulbecco's modified Eagle's medium/F12 medium supplemented with horse serum (10%), antibiotic/antimycotic (1%), insulin (10 μg/mL), EGF (20 ng/mL), cholera toxin (100 ng/mL), and hydrocortisone (500 μg/mL). […]
(§3) Cell proliferation was determined using the CellTiter-Blue viability assay as described previously (Gloeckner H, et al. Journal of immunological methods. 2001; 252(1-2):131-138). […] At 72 h after MELK inhibitor treatment, optical density at 595 nm was determined.

BT-549 cells = assay: Cell proliferation, CellTiter-Blue viability assay, BT-549; assay type: cell-based, human; details: 72 h after treatment
Excerpt: as §2, §3

CAMKK2 = CAMKK2 (Homo sapiens (Human), UniProt Q96RR4); assay: Selectivity dose-response kinase assay, CAMKK2; assay type: biochemical; details: 100 μM ATP
Excerpt: as §1

MCF10A cells = assay: Cell proliferation, CellTiter-Blue viability assay, MCF10A; assay type: cell-based, human; details: 72 h after treatment
Excerpt: HCC70, BT-549, and SUM159 human TNBC cell lines and MCF10A human breast epithelial cell line were purchased from American Type Culture Collection. The murine 4T1-Luc TNBC cells were purchased from PerkinElmer. HCC70, BT-549, and 4T1-Luc cells were maintained in RPMI 1640 medium (Life Technologies Inc., Grand Island, N.Y., USA) and MDA-MB-231-LM2 cells in Dulbecco's modified Eagle's medium/F12 medium (Life Technologies Inc., Grand Island, N.Y., USA), both types of medium supplemented with FBS (10%) and antibiotic/antimycotic (1%). SUM159 cells were maintained in Ham's F-12 medium (Life Technologies Inc., Grand Island, N.Y., USA) supplemented with FBS (5%), antibiotic/antimycotic (1%), insulin (5 μg/mL), and hydrocortisone (1 μg/mL). MCF10A cells were maintained in Dulbecco's modified Eagle's medium/F12 medium supplemented with horse serum (10%), antibiotic/antimycotic (1%), insulin (10 μg/mL), EGF (20 ng/mL), cholera toxin (100 ng/mL), and hydrocortisone (500 μg/mL). All cell lines used in this study were validated by the Characterized Cell Line Core Facility at MD Anderson Cancer Center by using a short tandem repeat method based on primer extension to detect single base deviations.
Cell proliferation was determined using the CellTiter-Blue viability assay as described previously (Gloeckner H, et al. Journal of immunological methods. 2001; 252(1-2):131-138). Cells were seeded in 96-well plates and treated the next day with MELK inhibitors (0-20 μM). At 72 h after MELK inhibitor treatment, optical density at 595 nm was determined.

AMPK = AMPK (Rattus norvegicus (Rat), UniProt P54645); assay: Selectivity dose-response kinase assay, AMPK; assay type: biochemical; details: 100 μM ATP
Excerpt: as §1

ERK2 = ERK2 (Rattus norvegicus (Rat), UniProt P63086); assay: Selectivity dose-response kinase assay, ERK2; assay type: biochemical; details: 100 μM ATP
Excerpt: as §1

HCC70 cells = assay: Cell proliferation, CellTiter-Blue viability assay, HCC70; assay type: cell-based, human; details: 72 h after treatment
Excerpt: as §2, §3

NUAK1 = NUAK1 (Homo sapiens (Human), UniProt O60285); assay: Selectivity dose-response kinase assay, NUAK1; assay type: biochemical; details: 100 μM ATP
Excerpt: as §1

MELK = MELK (Homo sapiens (Human), UniProt Q14680); assay: MELK p81-based kinase assay, dose-response (IC50/Ki); assay type: biochemical
Method: MELK and its substrate, Bcl-G were both recombinantly expressed and purified for use in screening assays (See Methods). […] 10 nM MELK 340 and 10 μM Bcl-GL in kinase assay buffer (50 mM HEPES pH 7.5, 100 mM KCl, 0.1 mM EDTA, 0.1 mM EGTA, 10 mM MgCl2, 10 μg/mL BSA) with 10 mM DTT were added to either 10 μM or 1 μM inhibitor aliquoted into 96 well plates (final 1% DMSO). The mixture was incubated at room temperature for 30 minutes prior to initiation of the assay with 40 μM γ-^32P-ATP (100-1000 CPM/pmol). 40 μL aliquots were spotted onto a p81 96 well filter plate (Unifilter, Whatman), quenched, and washed with 75 mM O-phosphoric acid 8 times, followed by a final wash with acetone for drying. Wells were then filled with scintillation fluid, sealed, and quantified using a MicroBeta TriLux liquid scintillation counter (PerkinElmer). Each inhibitor plate was assayed in duplicate, with at least 4 wells without MELK to establish background and at least 4 wells without inhibitor as a negative control. All readings were corrected for background signal based on the average counts from the wells without enzyme. Percent inhibition, defined as [100−(CPM+inhibitor/average CPM of positive controls)*100], was determined first at 10 μM inhibitor. The top 50 inhibitors were then re-screened in duplicate at 1 μM.
At set time points (0.25, 0.5, 1, 1.5, and 2 min for assays containing 10 nM MELK and 1, 2, 4, 6, and 10 min for assays containing 1 nM MELK), 30 μL aliquots were taken from each reaction and spotted onto 2×2 cm squares of p81 paper. Papers were washed 4 times in 75 mM O-phosphoric acid and once in acetone. Labeled protein was quantified by its associated CPM determined on a Packard 1500 scintillation counter at a sigma value of 2. CPM were translated into nmol ^32P incorporated using Equation 1.
Rates in the presence of each concentration of inhibitor were determined by plotting nmol ^32P incorporated vs. time. These rates were normalized to rates obtained without inhibitor, and data were plotted in terms of fractional activity. In most cases, data were fit to Equation 2. If the IC50 approached the amount of enzyme used in the assay, data were re-fit to the equation for tight-binding inhibitors (the Morrison equation, […]). […] Data were transformed as discussed and fit to Equation 3.
IC50 values were used to estimate each inhibitor's Ki using the Cheng-Prusoff relationship for competitive inhibitors (Equation 4).

Sequence of MELK (Q14680 1-340): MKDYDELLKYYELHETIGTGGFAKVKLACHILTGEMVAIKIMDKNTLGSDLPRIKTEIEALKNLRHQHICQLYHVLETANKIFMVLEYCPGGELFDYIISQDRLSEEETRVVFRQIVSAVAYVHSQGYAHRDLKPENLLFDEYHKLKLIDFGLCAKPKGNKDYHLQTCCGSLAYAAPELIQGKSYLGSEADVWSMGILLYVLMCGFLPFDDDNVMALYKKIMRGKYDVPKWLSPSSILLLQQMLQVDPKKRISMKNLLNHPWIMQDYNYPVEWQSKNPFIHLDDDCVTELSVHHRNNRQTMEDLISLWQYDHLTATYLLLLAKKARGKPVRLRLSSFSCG
Sequence of ERK2 (P63086 whole entry): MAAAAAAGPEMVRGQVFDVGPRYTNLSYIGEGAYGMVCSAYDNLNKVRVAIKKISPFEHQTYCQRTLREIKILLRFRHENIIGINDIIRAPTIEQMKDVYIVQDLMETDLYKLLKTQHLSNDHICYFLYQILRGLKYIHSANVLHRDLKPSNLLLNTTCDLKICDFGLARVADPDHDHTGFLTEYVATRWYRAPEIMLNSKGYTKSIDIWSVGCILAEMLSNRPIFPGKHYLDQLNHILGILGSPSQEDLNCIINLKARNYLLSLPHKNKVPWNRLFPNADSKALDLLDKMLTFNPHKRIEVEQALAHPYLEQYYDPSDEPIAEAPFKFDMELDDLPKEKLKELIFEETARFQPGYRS
Sequence of NUAK1 (O60285 whole entry): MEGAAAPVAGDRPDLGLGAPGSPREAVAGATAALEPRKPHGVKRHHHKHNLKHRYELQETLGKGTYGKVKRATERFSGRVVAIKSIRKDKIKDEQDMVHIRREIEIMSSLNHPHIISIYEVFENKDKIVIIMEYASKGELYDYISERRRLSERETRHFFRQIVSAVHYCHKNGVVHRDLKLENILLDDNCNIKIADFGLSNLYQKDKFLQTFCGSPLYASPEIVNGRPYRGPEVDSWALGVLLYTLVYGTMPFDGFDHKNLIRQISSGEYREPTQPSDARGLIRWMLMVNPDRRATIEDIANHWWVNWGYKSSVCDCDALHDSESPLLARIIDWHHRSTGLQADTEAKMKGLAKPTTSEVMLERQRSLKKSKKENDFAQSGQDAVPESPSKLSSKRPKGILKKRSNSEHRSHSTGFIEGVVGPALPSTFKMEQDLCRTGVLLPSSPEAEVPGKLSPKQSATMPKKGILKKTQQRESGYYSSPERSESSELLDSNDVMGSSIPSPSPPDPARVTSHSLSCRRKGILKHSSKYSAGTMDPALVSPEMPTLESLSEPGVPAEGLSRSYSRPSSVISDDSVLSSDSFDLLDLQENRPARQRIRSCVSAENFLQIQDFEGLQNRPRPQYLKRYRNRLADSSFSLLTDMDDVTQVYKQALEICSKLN
Sequence of CHK1 (O14757 whole entry): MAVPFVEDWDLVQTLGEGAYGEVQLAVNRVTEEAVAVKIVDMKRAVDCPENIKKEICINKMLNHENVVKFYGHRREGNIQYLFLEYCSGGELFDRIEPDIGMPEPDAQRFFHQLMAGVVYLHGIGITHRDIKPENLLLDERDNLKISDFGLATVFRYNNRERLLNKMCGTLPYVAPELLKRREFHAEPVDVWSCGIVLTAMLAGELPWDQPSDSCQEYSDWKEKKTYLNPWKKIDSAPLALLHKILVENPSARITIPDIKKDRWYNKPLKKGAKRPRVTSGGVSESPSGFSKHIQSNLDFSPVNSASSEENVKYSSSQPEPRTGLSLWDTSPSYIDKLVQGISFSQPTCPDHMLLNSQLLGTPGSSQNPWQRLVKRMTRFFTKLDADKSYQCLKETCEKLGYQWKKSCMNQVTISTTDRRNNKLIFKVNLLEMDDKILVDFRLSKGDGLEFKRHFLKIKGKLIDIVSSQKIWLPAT
Sequence of AMPK (P54645 whole entry, looked up): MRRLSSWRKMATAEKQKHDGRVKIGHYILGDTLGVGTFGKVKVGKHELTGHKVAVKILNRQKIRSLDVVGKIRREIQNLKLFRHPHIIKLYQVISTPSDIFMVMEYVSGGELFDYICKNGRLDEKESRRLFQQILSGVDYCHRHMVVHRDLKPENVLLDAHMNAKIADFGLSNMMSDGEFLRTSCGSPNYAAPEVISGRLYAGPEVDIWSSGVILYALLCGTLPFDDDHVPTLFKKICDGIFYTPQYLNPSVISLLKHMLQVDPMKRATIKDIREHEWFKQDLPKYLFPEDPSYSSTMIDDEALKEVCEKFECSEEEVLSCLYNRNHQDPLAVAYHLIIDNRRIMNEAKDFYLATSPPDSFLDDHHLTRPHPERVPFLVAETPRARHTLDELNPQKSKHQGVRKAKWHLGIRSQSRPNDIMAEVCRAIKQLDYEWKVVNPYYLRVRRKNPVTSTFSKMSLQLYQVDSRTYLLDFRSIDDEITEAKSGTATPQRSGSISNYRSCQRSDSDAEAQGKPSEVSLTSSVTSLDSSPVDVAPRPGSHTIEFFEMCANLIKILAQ
Sequence of AMPK (P80386 whole entry partner, looked up): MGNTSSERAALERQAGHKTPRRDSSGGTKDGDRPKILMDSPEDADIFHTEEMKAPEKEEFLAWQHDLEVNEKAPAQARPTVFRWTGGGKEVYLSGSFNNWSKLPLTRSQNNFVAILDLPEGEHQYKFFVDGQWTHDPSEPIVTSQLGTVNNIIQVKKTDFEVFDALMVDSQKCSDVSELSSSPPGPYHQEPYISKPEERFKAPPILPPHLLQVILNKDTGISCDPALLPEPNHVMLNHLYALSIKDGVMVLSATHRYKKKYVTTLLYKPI
Sequence of AMPK (P80385 whole entry partner, looked up): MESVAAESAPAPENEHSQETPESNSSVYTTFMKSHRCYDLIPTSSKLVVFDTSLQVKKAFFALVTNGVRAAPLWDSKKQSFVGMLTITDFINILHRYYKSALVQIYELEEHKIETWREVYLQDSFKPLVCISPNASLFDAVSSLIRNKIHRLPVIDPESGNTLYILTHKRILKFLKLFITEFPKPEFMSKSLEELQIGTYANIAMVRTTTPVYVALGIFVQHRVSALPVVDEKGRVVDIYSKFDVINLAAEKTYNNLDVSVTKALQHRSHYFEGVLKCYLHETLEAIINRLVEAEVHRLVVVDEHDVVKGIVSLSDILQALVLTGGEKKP
Sequence of CAMKK2 (Q96RR4 whole entry, species assumed): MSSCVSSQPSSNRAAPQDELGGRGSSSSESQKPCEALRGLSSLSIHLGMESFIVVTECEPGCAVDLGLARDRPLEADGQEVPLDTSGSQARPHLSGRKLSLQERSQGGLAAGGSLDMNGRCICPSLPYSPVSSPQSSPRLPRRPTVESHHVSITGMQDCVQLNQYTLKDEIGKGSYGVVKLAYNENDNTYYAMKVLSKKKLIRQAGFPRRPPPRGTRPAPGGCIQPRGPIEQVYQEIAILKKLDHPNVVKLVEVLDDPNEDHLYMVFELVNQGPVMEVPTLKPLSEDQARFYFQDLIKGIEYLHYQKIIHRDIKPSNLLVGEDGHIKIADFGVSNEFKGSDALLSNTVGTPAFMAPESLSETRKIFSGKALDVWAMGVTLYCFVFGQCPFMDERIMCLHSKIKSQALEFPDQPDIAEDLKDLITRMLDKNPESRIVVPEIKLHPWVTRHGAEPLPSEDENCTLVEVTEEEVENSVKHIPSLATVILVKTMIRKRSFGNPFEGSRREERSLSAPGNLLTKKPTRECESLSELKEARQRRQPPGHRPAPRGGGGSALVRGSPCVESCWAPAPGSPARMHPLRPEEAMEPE

COC(=O)c1ccc2c(c1)/C(=C(/Nc1ccc(N(C)C(=O)CN3CCN(C)CC3)cc1)c1ccccc1)C(=O)N2 [Compound 17, Methyl(Z)-3-(((4-(N-methyl-2-(4-methylpiperazin-1-yl)acetamido)phenyl)amino)(phenyl)methylene)-2-oxoindoline-5-carboxylate]
Ki (CHK1): 7 ± 0.17 nM | proliferation of SUM-159 cells (SUM-159 cells): clearly impacted | proliferation of BT-549 cells (BT-549 cells): clearly impacted | Ki (CAMKK2): 31 ± 11 nM | proliferation of MCF10A cells (MCF10A cells): little effect | proliferation of MCF10A cells (MCF10A cells; at 10 μM): remained largely unaffected | Ki (AMPK): 9.2 ± 1.7 nM | Ki (ERK2): 3000 ± 1300 nM | proliferation of HCC70 cells (HCC70 cells): clearly impacted | Ki (NUAK1): 11 ± 0.86 nM

CN1CCN(CC(=O)N(C)c2ccc(N/C(=C3\C(=O)Nc4ccc(F)cc43)c3ccccc3)cc2)CC1 [Compound 19, (Z)—N-(4-(((5-Fluoro-2-oxoindolin-3-ylidene)(phenyl)methyl)amino)phenyl)-N-methyl-2-(4-methylpiperazin-1-yl)acetamide]
Ki (MELK; Ki calculated using Equation 4, [ATP] = 40 μM, KM app (ATP) = 6 μM, read-out: Ki ± SE): 3.1 nM and 0.68 nM | IC50 (MELK; indolinone derivatives, 40 μM ATP, read-out: IC50): 24 ± 4.7 nM | proliferation of SUM-159 cells (SUM-159 cells): inhibited all cell lines | proliferation of BT-549 cells (BT-549 cells): inhibited all cell lines | proliferation of MCF10A cells (MCF10A cells): inhibited all cell lines | proliferation of HCC70 cells (HCC70 cells): inhibited all cell lines
